The text below walks through data of the supplement of paper PMC12076712.

As usually defined, the pIC50 is the negative decadic logarithm of the IC50, by convention in mol/L.

Holding throughout (experiment): pIC50, kinobeads binding competition
The target of one experiment is UniProt Q05655. Summed up: (§1)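 pIC50 was obtained by fitting fold changes against vehicle to logistic dose-response curves with the R drc package, using biological duplicates. Kinobeads-bound proteins were digested and measured by TMT10 LC-MS/MS. Before this, either living Jurkat cells received nine compound concentrations (top 30 μM, 1:4 steps) for 60 min at 37 °C prior to lysis, or Jurkat lysate or a 1:1:1:1 HEK293/K-562/HepG2/placenta lysate mix received nine concentrations (top 30 μM, 1:5 steps) for 60 min at 4 °C.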

A further experiment has as its target UniProt Q9H0K1. The method in brief:
as §1

Another experiment deals with T1, TP53RK (UniProt Q96S44).
T1 sequence (whole entry): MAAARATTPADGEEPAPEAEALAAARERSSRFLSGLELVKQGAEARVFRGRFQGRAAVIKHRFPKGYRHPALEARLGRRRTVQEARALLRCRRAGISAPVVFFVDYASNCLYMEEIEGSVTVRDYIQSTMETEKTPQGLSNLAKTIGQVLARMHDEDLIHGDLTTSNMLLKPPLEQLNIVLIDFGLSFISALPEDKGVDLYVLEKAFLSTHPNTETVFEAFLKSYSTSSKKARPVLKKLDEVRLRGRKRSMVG
Summed up:
as §1

In another experiment the target is PCTK3 (UniProt Q07002). Summed up:
as §1

A further experiment addresses UniProt P27448. The method in brief: as §1
Another experiment concerns the target CDK5 (UniProt Q00535). Summed up:
as §1

A further experiment concerns the target RIPK2 (UniProt O43353). As to conditions: cell material: Lysate mix. Summed up: as §1
The next experiment deals with T2, EPHB2 (UniProt P29323).
T2 sequence (whole entry): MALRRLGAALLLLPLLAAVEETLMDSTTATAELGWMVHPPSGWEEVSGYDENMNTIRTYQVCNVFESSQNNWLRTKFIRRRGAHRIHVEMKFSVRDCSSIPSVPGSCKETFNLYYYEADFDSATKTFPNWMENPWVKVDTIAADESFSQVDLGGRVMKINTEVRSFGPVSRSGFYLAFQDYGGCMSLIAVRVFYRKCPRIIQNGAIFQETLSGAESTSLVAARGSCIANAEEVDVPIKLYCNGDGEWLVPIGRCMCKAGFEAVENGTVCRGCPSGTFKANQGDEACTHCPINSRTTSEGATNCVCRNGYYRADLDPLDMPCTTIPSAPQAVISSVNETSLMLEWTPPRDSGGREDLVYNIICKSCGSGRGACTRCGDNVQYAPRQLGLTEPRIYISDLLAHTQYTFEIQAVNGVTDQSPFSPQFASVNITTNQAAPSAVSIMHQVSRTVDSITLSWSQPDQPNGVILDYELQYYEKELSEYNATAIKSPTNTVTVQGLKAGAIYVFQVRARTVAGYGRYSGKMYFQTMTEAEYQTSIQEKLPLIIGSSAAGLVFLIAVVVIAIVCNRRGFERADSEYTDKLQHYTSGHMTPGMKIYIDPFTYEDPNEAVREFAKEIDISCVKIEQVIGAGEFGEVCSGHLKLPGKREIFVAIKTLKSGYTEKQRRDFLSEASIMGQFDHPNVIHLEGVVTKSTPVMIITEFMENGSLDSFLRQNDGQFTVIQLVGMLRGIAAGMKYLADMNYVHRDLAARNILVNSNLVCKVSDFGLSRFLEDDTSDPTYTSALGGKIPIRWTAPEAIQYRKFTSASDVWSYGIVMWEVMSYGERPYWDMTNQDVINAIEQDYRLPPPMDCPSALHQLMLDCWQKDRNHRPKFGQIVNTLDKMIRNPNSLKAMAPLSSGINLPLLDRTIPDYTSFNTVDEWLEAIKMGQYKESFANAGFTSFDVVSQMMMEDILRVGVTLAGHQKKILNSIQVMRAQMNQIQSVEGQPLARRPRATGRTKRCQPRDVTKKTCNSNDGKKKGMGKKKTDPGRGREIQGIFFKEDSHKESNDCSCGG
Summed up: as §1

In a further experiment the target is UniProt Q9BVS4. The method in brief: as §1
A further experiment concerns the target UniProt P48730. The method in brief:
as §1

Another experiment deals with LIMK1 (UniProt P53667). Summed up: as §1
Another experiment has as its target T3, UniProt Q9UEE5.
T3 sequence (whole entry): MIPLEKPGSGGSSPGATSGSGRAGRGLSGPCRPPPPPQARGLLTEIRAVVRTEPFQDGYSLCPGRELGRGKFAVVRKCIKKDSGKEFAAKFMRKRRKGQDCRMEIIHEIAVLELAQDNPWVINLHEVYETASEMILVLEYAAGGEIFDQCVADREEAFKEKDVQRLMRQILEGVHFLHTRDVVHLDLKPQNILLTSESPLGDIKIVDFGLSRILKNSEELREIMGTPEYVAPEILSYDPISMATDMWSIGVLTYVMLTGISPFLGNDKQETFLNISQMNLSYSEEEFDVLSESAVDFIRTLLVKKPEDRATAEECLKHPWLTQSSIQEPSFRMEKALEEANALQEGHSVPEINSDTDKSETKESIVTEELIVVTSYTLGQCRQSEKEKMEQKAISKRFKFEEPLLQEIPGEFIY
The method in brief:
as §1

In another experiment the target is T4, PHKG2 (UniProt P15735).
T4 sequence (whole entry): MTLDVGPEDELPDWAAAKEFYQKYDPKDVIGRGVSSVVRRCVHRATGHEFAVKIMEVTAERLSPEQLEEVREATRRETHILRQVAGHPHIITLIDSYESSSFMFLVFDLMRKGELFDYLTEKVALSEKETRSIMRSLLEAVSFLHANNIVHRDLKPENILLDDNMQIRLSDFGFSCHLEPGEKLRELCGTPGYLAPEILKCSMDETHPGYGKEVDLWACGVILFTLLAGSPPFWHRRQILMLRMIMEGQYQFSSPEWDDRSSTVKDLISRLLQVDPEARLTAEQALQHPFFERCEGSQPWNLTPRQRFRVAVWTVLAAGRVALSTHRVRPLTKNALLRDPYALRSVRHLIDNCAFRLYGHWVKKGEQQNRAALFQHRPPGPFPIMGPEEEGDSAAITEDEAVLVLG
Summed up: as §1

Chain of UniProt Q9H0K1 (Q9H0K1 whole entry, looked up): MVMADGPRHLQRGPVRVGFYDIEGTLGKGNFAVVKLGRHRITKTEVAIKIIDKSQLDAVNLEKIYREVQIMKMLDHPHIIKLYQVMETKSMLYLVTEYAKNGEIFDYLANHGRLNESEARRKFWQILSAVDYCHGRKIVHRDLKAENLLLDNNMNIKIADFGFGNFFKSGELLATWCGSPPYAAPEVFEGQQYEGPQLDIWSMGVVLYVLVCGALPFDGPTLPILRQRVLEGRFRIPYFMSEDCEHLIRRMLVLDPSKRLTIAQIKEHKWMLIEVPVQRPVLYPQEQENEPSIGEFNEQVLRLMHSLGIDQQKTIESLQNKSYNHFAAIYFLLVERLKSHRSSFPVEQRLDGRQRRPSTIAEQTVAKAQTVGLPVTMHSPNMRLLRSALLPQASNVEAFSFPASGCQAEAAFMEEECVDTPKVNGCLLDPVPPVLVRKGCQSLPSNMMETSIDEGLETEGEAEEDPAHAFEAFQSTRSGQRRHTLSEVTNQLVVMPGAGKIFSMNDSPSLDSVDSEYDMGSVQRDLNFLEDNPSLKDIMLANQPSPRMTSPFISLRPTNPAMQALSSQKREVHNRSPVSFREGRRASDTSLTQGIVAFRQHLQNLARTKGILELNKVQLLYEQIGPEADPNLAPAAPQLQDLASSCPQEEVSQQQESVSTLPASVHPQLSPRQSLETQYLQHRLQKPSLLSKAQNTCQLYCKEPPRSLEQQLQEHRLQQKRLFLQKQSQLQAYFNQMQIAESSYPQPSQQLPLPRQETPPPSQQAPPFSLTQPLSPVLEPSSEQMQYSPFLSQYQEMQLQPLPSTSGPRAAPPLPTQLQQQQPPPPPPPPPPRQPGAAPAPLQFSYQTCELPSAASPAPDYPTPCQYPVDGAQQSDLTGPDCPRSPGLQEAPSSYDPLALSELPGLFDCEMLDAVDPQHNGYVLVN
Chain of UniProt P27448 (P27448 whole entry, looked up): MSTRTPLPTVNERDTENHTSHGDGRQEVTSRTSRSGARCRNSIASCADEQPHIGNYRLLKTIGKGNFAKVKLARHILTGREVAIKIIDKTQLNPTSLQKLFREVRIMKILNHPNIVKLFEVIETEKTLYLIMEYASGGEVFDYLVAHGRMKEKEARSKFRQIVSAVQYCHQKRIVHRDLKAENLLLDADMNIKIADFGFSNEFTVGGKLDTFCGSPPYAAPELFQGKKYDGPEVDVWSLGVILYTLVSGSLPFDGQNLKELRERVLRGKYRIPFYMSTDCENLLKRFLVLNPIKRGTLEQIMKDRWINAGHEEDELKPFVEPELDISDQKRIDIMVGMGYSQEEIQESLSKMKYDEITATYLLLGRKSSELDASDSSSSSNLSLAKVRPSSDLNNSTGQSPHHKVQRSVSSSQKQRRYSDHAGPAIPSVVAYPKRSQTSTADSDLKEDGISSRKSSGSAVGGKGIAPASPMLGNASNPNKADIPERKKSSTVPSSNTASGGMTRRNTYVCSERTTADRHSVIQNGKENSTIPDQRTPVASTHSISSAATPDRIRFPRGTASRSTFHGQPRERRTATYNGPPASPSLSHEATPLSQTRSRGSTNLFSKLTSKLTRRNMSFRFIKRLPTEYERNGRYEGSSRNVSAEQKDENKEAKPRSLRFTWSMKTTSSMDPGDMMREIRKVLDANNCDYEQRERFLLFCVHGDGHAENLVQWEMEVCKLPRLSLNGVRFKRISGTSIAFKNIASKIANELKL
Chain of LIMK1 (P53667 whole entry, looked up): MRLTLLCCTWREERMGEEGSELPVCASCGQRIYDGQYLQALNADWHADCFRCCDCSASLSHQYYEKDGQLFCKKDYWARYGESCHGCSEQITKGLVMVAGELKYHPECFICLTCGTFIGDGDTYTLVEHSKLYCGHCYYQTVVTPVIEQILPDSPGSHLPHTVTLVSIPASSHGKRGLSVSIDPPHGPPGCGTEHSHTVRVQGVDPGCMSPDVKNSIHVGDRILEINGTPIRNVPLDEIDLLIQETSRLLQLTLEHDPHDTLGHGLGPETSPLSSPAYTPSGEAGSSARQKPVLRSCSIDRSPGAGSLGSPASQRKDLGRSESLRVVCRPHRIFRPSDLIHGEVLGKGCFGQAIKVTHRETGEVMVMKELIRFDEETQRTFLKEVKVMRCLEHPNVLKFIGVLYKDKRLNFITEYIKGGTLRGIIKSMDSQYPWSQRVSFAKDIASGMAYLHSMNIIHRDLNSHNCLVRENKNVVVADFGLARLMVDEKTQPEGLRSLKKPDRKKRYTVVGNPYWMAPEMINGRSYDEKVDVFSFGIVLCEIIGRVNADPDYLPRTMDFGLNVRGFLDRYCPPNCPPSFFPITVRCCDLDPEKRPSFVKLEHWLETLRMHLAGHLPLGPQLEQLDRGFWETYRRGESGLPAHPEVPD
Chain of UniProt Q05655 (Q05655 whole entry, looked up): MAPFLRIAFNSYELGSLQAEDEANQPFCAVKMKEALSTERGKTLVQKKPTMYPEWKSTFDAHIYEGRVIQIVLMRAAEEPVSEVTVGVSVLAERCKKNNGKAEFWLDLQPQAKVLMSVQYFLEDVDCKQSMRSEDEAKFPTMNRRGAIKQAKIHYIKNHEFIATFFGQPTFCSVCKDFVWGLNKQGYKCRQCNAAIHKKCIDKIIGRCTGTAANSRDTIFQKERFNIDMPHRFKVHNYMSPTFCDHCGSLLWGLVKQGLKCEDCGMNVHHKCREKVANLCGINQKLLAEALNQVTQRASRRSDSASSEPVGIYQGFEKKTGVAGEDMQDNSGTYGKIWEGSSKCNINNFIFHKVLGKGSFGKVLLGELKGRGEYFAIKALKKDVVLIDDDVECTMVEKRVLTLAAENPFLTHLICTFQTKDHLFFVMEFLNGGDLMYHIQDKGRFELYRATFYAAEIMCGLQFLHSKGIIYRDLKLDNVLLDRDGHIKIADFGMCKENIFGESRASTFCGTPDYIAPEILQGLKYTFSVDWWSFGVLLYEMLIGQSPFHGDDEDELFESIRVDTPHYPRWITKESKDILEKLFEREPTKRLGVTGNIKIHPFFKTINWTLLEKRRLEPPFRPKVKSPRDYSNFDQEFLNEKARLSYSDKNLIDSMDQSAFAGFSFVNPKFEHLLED
Chain of UniProt P48730 (P48730 whole entry, looked up): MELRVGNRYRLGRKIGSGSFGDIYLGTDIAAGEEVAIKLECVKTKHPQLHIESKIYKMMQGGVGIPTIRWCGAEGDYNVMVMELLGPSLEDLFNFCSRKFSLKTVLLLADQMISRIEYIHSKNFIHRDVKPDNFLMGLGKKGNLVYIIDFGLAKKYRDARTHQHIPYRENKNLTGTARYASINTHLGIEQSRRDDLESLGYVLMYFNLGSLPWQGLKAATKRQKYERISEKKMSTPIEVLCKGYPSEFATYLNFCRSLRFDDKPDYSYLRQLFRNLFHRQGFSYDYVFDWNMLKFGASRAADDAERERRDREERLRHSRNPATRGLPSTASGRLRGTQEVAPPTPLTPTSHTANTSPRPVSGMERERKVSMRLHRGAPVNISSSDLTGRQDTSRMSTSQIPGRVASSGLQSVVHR
Chain of CDK5 (Q00535 whole entry, looked up): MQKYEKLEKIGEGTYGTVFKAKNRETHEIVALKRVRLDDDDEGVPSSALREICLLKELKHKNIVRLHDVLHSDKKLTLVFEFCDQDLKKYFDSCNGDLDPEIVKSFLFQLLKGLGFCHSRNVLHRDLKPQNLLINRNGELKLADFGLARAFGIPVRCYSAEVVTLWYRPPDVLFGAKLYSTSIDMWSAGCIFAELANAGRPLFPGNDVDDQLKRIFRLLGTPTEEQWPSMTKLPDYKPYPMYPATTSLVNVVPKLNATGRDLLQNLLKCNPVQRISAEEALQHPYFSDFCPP
Chain of RIPK2 (O43353 whole entry): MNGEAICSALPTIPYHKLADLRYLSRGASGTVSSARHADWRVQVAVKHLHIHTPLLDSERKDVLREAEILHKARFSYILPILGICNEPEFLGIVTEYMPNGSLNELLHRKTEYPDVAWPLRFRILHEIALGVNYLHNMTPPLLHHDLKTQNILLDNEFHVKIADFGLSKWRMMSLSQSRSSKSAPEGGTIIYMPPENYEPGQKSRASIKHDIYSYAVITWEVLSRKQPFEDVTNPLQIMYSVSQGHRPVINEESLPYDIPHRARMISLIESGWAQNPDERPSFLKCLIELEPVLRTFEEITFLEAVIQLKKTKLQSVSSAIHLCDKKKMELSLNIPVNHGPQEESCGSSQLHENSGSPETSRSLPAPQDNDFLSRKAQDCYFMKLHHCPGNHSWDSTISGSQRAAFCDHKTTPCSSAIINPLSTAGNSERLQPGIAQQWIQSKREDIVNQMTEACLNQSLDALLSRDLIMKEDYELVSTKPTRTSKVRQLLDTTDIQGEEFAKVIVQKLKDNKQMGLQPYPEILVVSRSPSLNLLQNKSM
Chain of UniProt Q9BVS4 (Q9BVS4 whole entry, looked up): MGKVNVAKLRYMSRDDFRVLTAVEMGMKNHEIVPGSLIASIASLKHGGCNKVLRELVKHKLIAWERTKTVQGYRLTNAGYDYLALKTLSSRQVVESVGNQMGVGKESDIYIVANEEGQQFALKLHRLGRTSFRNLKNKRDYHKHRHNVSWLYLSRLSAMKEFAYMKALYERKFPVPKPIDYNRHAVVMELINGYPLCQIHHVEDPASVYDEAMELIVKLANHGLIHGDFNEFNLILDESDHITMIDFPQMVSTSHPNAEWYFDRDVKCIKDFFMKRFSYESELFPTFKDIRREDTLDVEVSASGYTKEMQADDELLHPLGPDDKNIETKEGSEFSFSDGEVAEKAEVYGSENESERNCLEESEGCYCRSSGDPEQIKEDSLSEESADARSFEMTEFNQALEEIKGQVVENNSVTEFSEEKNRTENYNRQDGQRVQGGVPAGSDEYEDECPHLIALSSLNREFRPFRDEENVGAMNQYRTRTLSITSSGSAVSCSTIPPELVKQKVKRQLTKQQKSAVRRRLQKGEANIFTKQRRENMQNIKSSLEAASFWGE

Turning to `C#CCNC(=O)c1cc(Nc2cc(C3CC3)[nH]n2)nc(N2CCN(Cc3ccc(S(=O)(=O)F)cc3)CC2)n1`, the pIC50 at UniProt Q05655 (cell material: Jurkat cells) is 5.53; at UniProt Q05655 (cell material: Jurkat lysate), less than 4.52; at UniProt Q05655 (cell material: Lysate mix) it was less than 4.52; on UniProt Q9H0K1 (cell material: Jurkat cells), 6.22; at UniProt Q9H0K1 (cell material: Jurkat lysate) it was less than 4.52; at UniProt Q9H0K1 (cell material: Lysate mix) it was less than 4.52. The negative logarithm of the IC50 (pIC50) on TP53RK (cell material: Jurkat cells) was less than 4.52; at TP53RK (cell material: Jurkat lysate), less than 4.52; at TP53RK (cell material: Lysate mix), less than 4.52; at PCTK3 (cell material: Jurkat cells), 6.2; on PCTK3 (cell material: Jurkat lysate), less than 4.52; on PCTK3 (cell material: Lysate mix), 5.2. Moreover, the pIC50 at UniProt P27448 (cell material: Jurkat cells) was 5.81; at UniProt P27448 (cell material: Jurkat lysate), less than 4.52; at UniProt P27448 (cell material: Lysate mix), less than 4.52; at CDK5 (cell material: Jurkat cells) it was 6.74; at CDK5 (cell material: Jurkat lysate), 5.96; on CDK5 (cell material: Lysate mix), 6.48. For the same molecule, the pIC50 is less than 4.52 on RIPK2; less than 4.52 on EPHB2 (cell material: Jurkat cells); less than 4.52 on EPHB2 (cell material: Jurkat lysate); less than 4.52 at EPHB2 (cell material: Lysate mix); 5.12 at UniProt Q9BVS4 (cell material: Jurkat cells); less than 4.52 at UniProt Q9BVS4 (cell material: Jurkat lysate). The negative logarithm of the IC50 (pIC50) is less than 4.52 on UniProt Q9BVS4 (cell material: Lysate mix); less than 4.52 at UniProt P48730 (cell material: Jurkat lysate); less than 4.52 at UniProt P48730 (cell material: Lysate mix); 6.96 at LIMK1 (cell material: Jurkat cells); 5.99 on LIMK1 (cell material: Jurkat lysate); 6.32 at LIMK1 (cell material: Lysate mix). The negative logarithm of the IC50 (pIC50) on UniProt Q9UEE5 (cell material: Jurkat cells) was 5.42; at UniProt Q9UEE5 (cell material: Jurkat lysate), less than 4.52; at UniProt Q9UEE5 (cell material: Lysate mix), less than 4.52; at PHKG2 (cell material: Jurkat cells), 5.16; on PHKG2 (cell material: Jurkat lysate), less than 4.52; at PHKG2 (cell material: Lysate mix), less than 4.52.

Turning to `C#CCNC(=O)c1cc(Nc2cc(C)[nH]n2)nc(N2CCN(Cc3ccc(S(=O)(=O)F)cc3)CC2)n1`, the pIC50 was less than 4.52 on UniProt Q05655 (cell material: Lysate mix); less than 4.52 at UniProt Q9H0K1 (cell material: Lysate mix); less than 4.52 on TP53RK (cell material: Lysate mix); less than 4.52 on PCTK3 (cell material: Lysate mix); less than 4.52 on UniProt P27448 (cell material: Lysate mix); 6.02 on CDK5 (cell material: Lysate mix). Moreover, the pIC50 at RIPK2 is less than 4.52; at EPHB2 (cell material: Lysate mix), less than 4.52; on UniProt Q9BVS4 (cell material: Lysate mix) it was less than 4.52; on UniProt P48730 (cell material: Lysate mix), less than 4.52; on LIMK1 (cell material: Lysate mix) it was 5.62; on UniProt Q9UEE5 (cell material: Lysate mix) it was less than 4.52. Further, the negative-log IC50 (pIC50) at PHKG2 (cell material: Lysate mix) was less than 4.52.

In the case of `CCNC(=O)c1cc(Nc2cc(C3CC3)[nH]n2)nc(N2CCN(Cc3ccc(S(=O)(=O)F)cc3)CC2)n1`, the negative-log IC50 (pIC50) at UniProt Q05655 (cell material: Lysate mix) is less than 4.52; at UniProt Q9H0K1 (cell material: Lysate mix) it was less than 4.52; at TP53RK (cell material: Lysate mix) it was less than 4.52; at PCTK3 (cell material: Lysate mix), 5.36; on UniProt P27448 (cell material: Lysate mix) it was less than 4.52; on CDK5 (cell material: Lysate mix), 6.06. Moreover, the pIC50 at RIPK2 is less than 4.52; on EPHB2 (cell material: Lysate mix), less than 4.52; at UniProt Q9BVS4 (cell material: Lysate mix) it was less than 4.52; at UniProt P48730 (cell material: Lysate mix), less than 4.52; on LIMK1 (cell material: Lysate mix), 6.06; at UniProt Q9UEE5 (cell material: Lysate mix), less than 4.52. Further, the pIC50 on PHKG2 (cell material: Lysate mix) was less than 4.52.
